In US10562842B2, “Use of polyaminoisoprenyl derivatives in antibiotic or antiseptic treatment” (UNIVERSITE D'AIX-MARSEILLE, priority 2011, dated 2020):
Peptide text beside a SMILES is read from it. * marks the point of attachment. βNA = c1ccc2cc(N*)ccc2c1

Tests used:
[1] = system: Ea289; assay: MIC by broth dilution (intrinsic MIC); format: cell-based, Enterobacter aerogenes; conditions: antibiotic alone
Protocol: (§1) Susceptibilities to antibiotics and compounds were determined in microplates by broth dilution method, as previously described. Minimal Inhibitory Concentrations (MICs) were determined with an inoculum of 10^6 CFU in 200 μL of MH broth containing two-fold serial dilutions of each drug. […] All MIC determinations were repeated at least three times in independent experiments.

[2] = system: Ea294; assay: MIC by broth dilution (intrinsic MIC); format: cell-based, Enterobacter aerogenes; conditions: antibiotic alone
Protocol: as §1

[3] = system: BN10055; assay: MIC by broth dilution (intrinsic MIC); format: cell-based, Salmonella enterica; conditions: antibiotic alone
Protocol: as §1

[4] = system: BN10055ΔacrB; assay: MIC by broth dilution (intrinsic MIC); format: cell-based, Salmonella enterica; conditions: antibiotic alone
Protocol: as §1

[5] = Tolerance in mice, intraperitoneal route; format: in vivo; conditions: for tissue anomaly (liver, lung, kidney, intestine): day 2, Compound 5 8.8 mg/kg, 8 1.46 mg/kg, 11 0.45 mg/kg, 14 0.35 mg/kg, 12 6.3 mg/kg
Protocol: Mice were administered with increasing doses of test compounds by intraperitoneal route.
The mice were sacrificed on day 2 after the injection of the test compound and autopsied. No morphological anomaly was observed. Liver, lung, kidney and intestine of each mouse were fixed and analysed.

[6] = system: CHO cells; assay: Toxicity on CHO cultured cells; format: cell-based; conditions: killing of 50% of the CHO cells after 24 hours of incubation
Protocol: The toxicity of each compound was determined on CHO cultured cells. Incubation of CHO cells was performed with serial dilution of compounds. The compounds are either solubilized in DMSO or in PBS. The IC50 corresponds to the concentration of compounds leading to a killing of 50% of the CHO cells after 24 hours of incubation.

[7] = system: Enterobacter aerogenes MDR Ea289; assay: MIC of antibiotics ± test compound (MIC ratio), micro-broth dilution; format: cell-based; conditions: for Effective concentration (mM) for a MIC ratio of chloramphenicol ≥ 8 on Ea289 / MIC ratio (*) on Ea289 Chl: chloramphenicol
Protocol: The process consists of treating the MDR bacteria with the compounds of the invention in the presence of antibiotics.
as §1
The MICs of chloramphenicol±test compounds (MIC/4) were determined by the micro-broth dilution method (9). All MIC determinations were repeated at least three times in independent experiments. The MIC ratio corresponds to the ratio of the MIC of an antibiotic alone to the MIC of the same antibiotic in the presence of the tested compound (at MIC/4).
The compounds listed in Table 2 were tested for their ability to decrease the chloramphenicol MIC of Ea289, an Enterobacter aerogenes MDR strain (1). Each compound was first tested at MIC/4. […] All MIC determinations were repeated at least three times in independent experiments.
(§2) For reminder, the MIC ratio corresponds to the ratio of the MIC of the assessed antibiotic alone to the MIC of the same antibiotic in the presence of the tested compound (at MIC/4).

[8] = system: Ea289ΔacrB (Ea294); assay: as above; format: cell-based, Enterobacter aerogenes; conditions: compound at MIC/4, Set 1
Protocol: (§3) The Enterobacter aerogenes Ea289 strain is a Kans derivative of the MDR clinical isolate Ea27, the acrB mutant, EaEP294, was constructed from Ea289. Multidrug-resistant Salmonella enterica serovar Typhimurium DT104 strains (BN10055) was isolated from cattle in France, the isogenic acrB derivative mutant, BN10055ΔacrB, was constructed from BN10055. Strains were maintained at −80° C. in 25% (v/v) glycerol for cryoprotection. Bacteria were routinely grown in Mueller-Hinton (MH) broth at 37° C.
as §1
(§4) […] All MIC determinations were repeated at least three times in independent experiments. The MIC ratio corresponds to the ratio of the MIC of an antibiotic alone to the MIC of the same antibiotic in the presence of the tested compound (at MIC/4).
as §2

[9] = system: BN10055ΔacrB; assay: as above; format: cell-based, Salmonella enterica serovar Typhimurium; conditions: compound at MIC/4, Set 1
Protocol: as §3, §1, §4, §2

[10] = system: Salmonella Thyphimurium MDR BN10055; assay: as above; format: cell-based, Salmonella enterica serovar Typhimurium; conditions: compound at MIC/4; for MIC ratio (*) on BN10055 Chl: chloramphenicol; for MIC ratio (*) on BN10055 Dox: doxycycline; for MIC ratio (*) on BN10055 Nal: nalidixic acid
Protocol: as §3, §1, §4, §2

[11] = system: Enterobacter aerogenes MDR Ea289; assay: as above; format: cell-based; conditions: compound at MIC/4, Set 2; for MIC ratio (*) on Ea289 Dox: doxycycline; for MIC ratio (*) on Ea289 Nal: nalidixic acid
[12] = system: A. Baumannii ATCC19606; assay: Susceptibility of Gram-negative strains to macrolides in the presence of test compound; format: cell-based, Acinetobacter baumannii; set-up: Susceptibility to Clarithomycin, A. Baumannii ATCC19606: key to the marks not given beside the values
[13] = system: E. Coli AG100; assay: as above; format: cell-based, Escherichia coli; set-up: Susceptibility to Clarithomycin, E. Coli AG100 / Susceptibility to Erythromycin, E. Coli AG100: key to the marks not given beside the values
[14] = system: E. aerogenes ATCC13048; assay: as above; format: cell-based, Enterobacter aerogenes
[15] = system: S. enterica Thyphimurium ATCC13311; assay: as above; format: cell-based, Salmonella enterica Typhimurium; set-up: key to the marks not given beside the values

## O=C(N[C@H](CO)[C@H](O)c1ccc([N+](=O)[O-])cc1)C(Cl)Cl [Chloramphenicol, reference compound]
[1]
  Chl-MIC: Chloramphenicol Minimal Inhibitory Concentration, Ea289: 1024 µg/mL
[2]
  Chl-MIC: Chloramphenicol Minimal Inhibitory Concentration, Ea294: 64 µg/mL
[3]
  Chl-MIC: Chloramphenicol Minimal Inhibitory Concentration, BN10055: 256 µg/mL
[4]
  Chl-MIC: Chloramphenicol Minimal Inhibitory Concentration, BN10055ΔacrB: 16 µg/mL

## CC(C)=CCC/C(C)=C/C(=O)NCCCN(CCCN)CCCN [Compound 5]
[5]; 35.25 mg/kg
  tissue observation at the highest dose: slight vascular modifications
[5]
  tissue anomaly (liver, lung, kidney, intestine): no significant tissue anomaly

## CC(C)=CCC/C(C)=C/CC/C(C)=C/CNCCCNCCCCNCCCN [Compound 8, {3-[4-(3-Amino-propylamino)-butylamino]-propyl}-(3,7,11-trimethyl-dodeca-2,6,10-trienyl)-amine]
[6]; Cricetulus griseus
  IC50: 0.726 mM
[7]
  Effective concentration (mM) for a MIC ratio of chloramphenicol ≥ 8 on Ea289: 0.0078 mM
[7]; chloramphenicol MIC ratio of 8 on Ea289
  efficient concentration, times lower than the control PAβN: about 4.9 times
[7]; chloramphenicol on Ea289
  activity, effective concentration compared with PAβN to reach a MIC ratio of 8: strong activity
[7]; compound at MIC/4, Set 1
  MIC ratio (*) on Ea289 Chl: 8-16
[7]; compound at MIC/4, Set 2
  MIC ratio (*) on Ea289 Chl: 8-16
[7]; erythromycin, compound at MIC/4, Set 1
  MIC ratio(*) on Ea289 Ery: 32
[7]; nalidixic acid, compound at MIC/4, Set 1
  MIC ratio (*) on Ea289 Nal: >16
[8]; chloramphenicol
  MIC ratio(*) on Ea289ΔacrB Chl: 2
[8]; erythromycin
  MIC ratio(*) on Ea289ΔacrB Ery: 16
[8]; nalidixic acid
  MIC ratio(*) on Ea289ΔacrB Nal: 4
[9]; chloramphenicol
  MIC ratio(*) on BN10055ΔacrB Chl: 4
[9]; erythromycin
  MIC ratio(*) on BN10055ΔacrB Ery: 8
[9]; nalidixic acid
  MIC ratio(*) on BN10055ΔacrB Nal: 4
[10]; Set 1
  MIC ratio (*) on BN10055 Chl: >16
  MIC ratio (*) on BN10055 Nal: 64
[10]; Set 2
  MIC ratio (*) on BN10055 Chl: 16-32
  MIC ratio (*) on BN10055 Dox: 8
  MIC ratio (*) on BN10055 Nal: 64
[10]; erythromycin, Set 1
  MIC ratio(*) on BN10055 Ery: 8
[5]
  tissue anomaly (liver, lung, kidney, intestine): no significant tissue anomaly
[11]
  MIC ratio (*) on Ea289 Dox: 16
  MIC ratio (*) on Ea289 Nal: 16-32

## CC(C)=CCC/C(C)=C/CNCCCN [Compound 12, (3,7-Dimethyl-octa-2,6-dienyl)-propane-1,3-diamine]
[7]; compound at MIC/4, Set 2
  MIC ratio (*) on Ea289 Chl: 16
[10]; Set 2
  MIC ratio (*) on BN10055 Chl: 8
  MIC ratio (*) on BN10055 Dox: 16
  MIC ratio (*) on BN10055 Nal: 32
[5]
  tissue anomaly (liver, lung, kidney, intestine): no significant tissue anomaly
[11]
  MIC ratio (*) on Ea289 Dox: 16
  MIC ratio (*) on Ea289 Nal: 4-8

## N=C(N)NCCC[C@H](NC(=O)[C@@H](N)Cc1ccccc1)C(=O)Nc1ccc2ccccc2c1 [PAβN, Phenyl-Arginine β-Naphtylamide] (H-Phe-Arg-βNA)
[6]
  IC50: > 5 mM
[7]
  Effective concentration (mM) for a MIC ratio of chloramphenicol ≥ 8 on Ea289: 0.038 mM
[12]
  Susceptibility to Clarithomycin, A. Baumannii ATCC19606: ++
  Susceptibility to Erythromycin, A. Baumannii ATCC19606: +
  Susceptibility to Spiramycin, A. Baumannii ATCC19606: +
[13]
  Susceptibility to Clarithomycin, E. Coli AG100: ++
  Susceptibility to Erythromycin, E. Coli AG100: ++
  Susceptibility to Spiramycin, E. Coli AG100: +
[14]
  Susceptibility to Clarithomycin, E. aerogenes ATCC13048: +
  Susceptibility to Erythromycin, E. aerogenes ATCC13048: +
  Susceptibility to Spiramycin, E. aerogenes ATCC13048: +
[15]
  Susceptibility to Clarithomycin, S. enterica Thyphimurium ATCC13311: ++
  Susceptibility to Erythromycin, S. enterica Thyphimurium ATCC13311: ++
  Susceptibility to Spiramycin, S. enterica Thyphimurium ATCC13311: ++
